Counter-ions that a name gives are not always drawn.
What was measured:
[1] = test system: Staphylococcus epidermidis Kawamura; assay: antimicrobial activity compared with ceftazidime; assay type: cell-based; settings: relative to ceftazidime
[2] = test system: clinical isolates of MRSA; assay: antibacterial activity (90 % inhibitory concentration) against clinical isolates; assay type: cell-based, methicillin resistant Staphylococcus aureus (MRSA); settings: relative to ceftazidime
mice = assay: acute toxicity by intravenous administration; assay type: in vivo; settings: dose of 1 g/kg, five mice, within five days after administration
Excerpt: Moreover, the desired compounds [I] or pharmaceutically acceptable salts thereof have high absorbability in the living tissue, and the treatment effects thereof last for a long time so that the compounds [I] of the present invention show an excellent defense effect in infectious diseases caused by various microorganisms including Staphylococcus aureus and Pseudomonas aeruginosa. In addition, the desired compounds [I] of the present invention and pharmaceutically acceptable salts thereof have low toxicity and show high safety as medicaments.

[3] = test system: Citrobacter freundii GN346; assay: antimicrobial activity against β-lactamase-producing bacteria compared with ceftazidime; assay type: cell-based; settings: relative to ceftazidime
[4] = test system: Staphylococcus aureus 209P JC-1; assay: antimicrobial activity compared with ceftazidime; assay type: cell-based; settings: relative to ceftazidime

SMILES | antimicrobial activity, times stronger as compared with ceftazidime [1] | antibacterial activity (90 % inhibitory concentration), times superior to that of ceftazidime [2] | acute toxicity (mice that died) (mice) | antimicrobial activity, times stronger than ceftazidime [3] | antimicrobial activity, times stronger as compared with ceftazidime [4]
Cc1c(N)ccc[n+]1CC1=C(C(=O)[O-])N2C(=O)[C@@H](NC(=O)/C(=N\OC(C(=O)O)c3ccc(O)c4[nH]c(=O)ccc34)c3csc(N)n3)[C@H]2SC1 (stereo partly drawn) [Example 27, 7β-{(Z)-2-(2-aminothiazol-4-yl)-2-[(8-hydroxy-2-oxo-1H-quinolin-5-yl)(carboxy)methyloxyimino]acetamido}-3-(3 amino-2-methyl-1-pyridiniomethyl)-3-cephem-4-carboxylic acid sodium salt] | more than 16 times | about 16 times | none of the five mice | – | –
Nc1nc(/C(=N/OC(C(=O)O)c2ccc(O)c3[nH]c(=O)ccc23)C(=O)N[C@@H]2C(=O)N3C(C(=O)[O-])=C(C[n+]4ccccc4)CS[C@H]23)cs1 (stereo partly drawn) [Example 4, 7β-{(Z)-2-(2-aminothiazol-4-yl)-2-[(8-hydroxy-2-oxo-1H-quinolin-5-yl)(carboxy)methyloxyimino]acetamido}-3-(1-pyridiniomethyl)-3-cephem-4-carboxylic acid sodium salt] | more than 16 times | – | – | more than 4 times | –
Nc1nc(/C(=N/OC(C(=O)O)c2ccc(O)c3[nH]c(=O)ccc23)C(=O)N[C@@H]2C(=O)N3C(C(=O)[O-])=C(C[n+]4cccc5ccccc54)CS[C@H]23)cs1 (stereo partly drawn) [Example 3, 7β-{(Z)-2-(2-aminothiazol-4-yl)-2-[(8-hydroxy-2-oxo-1H-quinolin-5-yl)(caboxy)methyloxyimino]acetamido}-3-(1-quinoliniomethyl)-3-cephem-4-carboxylic acid sodium salt] | – | – | – | more than 4 times | more than 32 times

From patent publication EP0544958A1, “Cephalosporin compounds and processes for preparing the same” (TANABE SEIYAKU CO., LTD., priority 1991, dated 1993)
